Results: US20230148214A1, “INDAZOLES AND AZAINDAZOLES AS LRRK2 INHIBITORS” (ESCAPE Bio, Inc., priority 2020, published 2023)

Columns and labels:
LRRK2 WT = target: T1, LRRK2 WT (Homo sapiens, UniProt Q5S007); assay: LRRK2 Kinase Activity Assay (LanthaScreen TR-FRET), wild type; format: biochemical; settings: recombinant wild type LRRK2, 25 μM ATP, 400 nM LRRKtide, 60 min
T1 construct: purchased Life Technologies PR8604B
Summary of the method: (§1)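 IC50 fitted to the compound-dependent loss of TR-FRET signal. Each kinase form, wild type or G2019S, phosphorylated the fluorescein-tagged ERM-derived LRRKtide in the presence of ATP and compound dilutions over 60 min at room temperature; quench contained 10 mM EDTA and 2 nM anti-pERM antibody (final).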

LRRK2 G2019S = target: T2, LRRK2 G2019S (Homo sapiens, UniProt Q5S007, G2019S); assay: LRRK2 Kinase Activity Assay (LanthaScreen TR-FRET), G2019S; format: biochemical; settings: recombinant G2019S-LRRK2, 25 μM ATP, 400 nM LRRKtide, 60 min; class symbols
T2 construct: purchased Life Technologies PV4881
Summary of the method: as §1

T2 sequence (Q5S007 whole entry G2019S): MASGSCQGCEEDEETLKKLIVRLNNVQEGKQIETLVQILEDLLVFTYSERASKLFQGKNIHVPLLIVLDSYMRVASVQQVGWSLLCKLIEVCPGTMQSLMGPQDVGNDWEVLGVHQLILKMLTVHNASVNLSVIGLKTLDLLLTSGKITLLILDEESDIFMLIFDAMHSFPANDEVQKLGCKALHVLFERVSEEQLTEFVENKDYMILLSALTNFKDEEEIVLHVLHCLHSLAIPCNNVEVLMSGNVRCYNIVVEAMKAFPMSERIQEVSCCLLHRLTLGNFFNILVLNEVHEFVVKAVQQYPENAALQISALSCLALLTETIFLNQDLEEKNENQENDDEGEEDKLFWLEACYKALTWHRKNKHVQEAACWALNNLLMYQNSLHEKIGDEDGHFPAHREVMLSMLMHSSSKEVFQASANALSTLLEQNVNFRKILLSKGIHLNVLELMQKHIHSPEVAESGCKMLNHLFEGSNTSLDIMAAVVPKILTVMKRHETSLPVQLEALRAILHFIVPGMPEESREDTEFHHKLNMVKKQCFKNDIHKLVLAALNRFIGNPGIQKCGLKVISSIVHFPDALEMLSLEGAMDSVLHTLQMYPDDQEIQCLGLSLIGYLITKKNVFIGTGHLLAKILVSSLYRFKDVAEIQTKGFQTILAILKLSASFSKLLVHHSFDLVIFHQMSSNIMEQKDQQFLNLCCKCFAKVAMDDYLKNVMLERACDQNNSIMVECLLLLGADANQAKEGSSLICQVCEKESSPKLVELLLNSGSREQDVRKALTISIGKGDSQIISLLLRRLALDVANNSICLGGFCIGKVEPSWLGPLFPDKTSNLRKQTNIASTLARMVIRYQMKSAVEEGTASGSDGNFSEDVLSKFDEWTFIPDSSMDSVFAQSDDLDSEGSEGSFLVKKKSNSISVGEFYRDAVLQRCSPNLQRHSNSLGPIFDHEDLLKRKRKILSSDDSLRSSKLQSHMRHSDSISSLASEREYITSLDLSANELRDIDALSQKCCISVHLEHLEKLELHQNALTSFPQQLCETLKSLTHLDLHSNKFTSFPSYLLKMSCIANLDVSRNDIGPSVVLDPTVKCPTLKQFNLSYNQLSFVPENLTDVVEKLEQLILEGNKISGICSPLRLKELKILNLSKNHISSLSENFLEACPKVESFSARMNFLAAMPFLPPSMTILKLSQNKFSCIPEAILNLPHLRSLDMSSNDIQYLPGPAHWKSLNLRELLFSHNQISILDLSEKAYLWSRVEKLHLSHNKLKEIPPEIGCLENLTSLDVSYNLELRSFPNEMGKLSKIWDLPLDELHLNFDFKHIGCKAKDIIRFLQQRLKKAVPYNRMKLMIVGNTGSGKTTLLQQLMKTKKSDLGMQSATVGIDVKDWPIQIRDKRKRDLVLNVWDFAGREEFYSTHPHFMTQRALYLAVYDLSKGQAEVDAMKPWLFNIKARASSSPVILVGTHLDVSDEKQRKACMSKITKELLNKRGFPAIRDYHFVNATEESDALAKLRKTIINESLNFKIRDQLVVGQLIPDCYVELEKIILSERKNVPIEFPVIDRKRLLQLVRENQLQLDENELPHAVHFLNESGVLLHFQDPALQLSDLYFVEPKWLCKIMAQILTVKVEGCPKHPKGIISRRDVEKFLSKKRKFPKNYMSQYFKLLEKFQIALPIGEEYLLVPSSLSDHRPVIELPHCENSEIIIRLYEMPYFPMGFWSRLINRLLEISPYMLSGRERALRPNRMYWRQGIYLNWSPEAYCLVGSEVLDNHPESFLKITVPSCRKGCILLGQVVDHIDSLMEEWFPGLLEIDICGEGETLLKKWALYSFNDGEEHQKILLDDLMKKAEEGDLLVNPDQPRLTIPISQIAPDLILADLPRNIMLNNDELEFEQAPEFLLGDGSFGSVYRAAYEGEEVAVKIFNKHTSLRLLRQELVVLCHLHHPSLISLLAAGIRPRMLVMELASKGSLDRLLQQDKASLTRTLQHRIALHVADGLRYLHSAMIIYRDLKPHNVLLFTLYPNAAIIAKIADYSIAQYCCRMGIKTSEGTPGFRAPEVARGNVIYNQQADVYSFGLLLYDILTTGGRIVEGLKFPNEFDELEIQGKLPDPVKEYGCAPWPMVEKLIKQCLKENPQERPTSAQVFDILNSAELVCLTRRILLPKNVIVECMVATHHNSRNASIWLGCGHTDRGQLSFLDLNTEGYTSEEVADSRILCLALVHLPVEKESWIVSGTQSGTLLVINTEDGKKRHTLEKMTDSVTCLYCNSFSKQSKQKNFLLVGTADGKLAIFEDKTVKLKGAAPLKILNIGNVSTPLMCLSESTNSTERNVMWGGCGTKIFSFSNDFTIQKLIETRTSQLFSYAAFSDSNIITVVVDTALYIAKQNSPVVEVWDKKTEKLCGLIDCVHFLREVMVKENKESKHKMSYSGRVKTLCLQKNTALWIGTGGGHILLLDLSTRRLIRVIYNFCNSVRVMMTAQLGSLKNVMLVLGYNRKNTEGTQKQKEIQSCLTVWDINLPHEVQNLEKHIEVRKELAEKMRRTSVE
T1 sequence (Q5S007 whole entry): as the sequence (Q5S007 whole entry G2019S) above, with S2019G counted along it

| SMILES | IC50 (LRRK2 WT; class symbols) [nM] | IC50 (LRRK2 G2019S) [nM] | IC50 (LRRK2 WT; numeric bound) [nM] |
| --- | --- | --- | --- |
| N#Cc1ccc2c(c1)CCC[C@@H]2Nc1ccc2[nH]nc(-c3ccc(F)c(C(=O)O)c3)c2c1 (single isomer, unassigned) [Example 66, 5-(5-((6-Cyano-1,2,3,4-tetrahydronaphthalen-1-yl)amino)-1H-indazol-3-yl)-2-fluorobenzoic acid] | 100 to 1000 | < 100 |  |
| N#Cc1ccc2c(c1)CCC[C@@H]2Nc1ccc2[nH]nc(-c3ccc4scnc4c3)c2c1 (single isomer, unassigned) [Example 67, 5-((3-(Benzo[d]thiazol-5-yl)-1H-indazol-5-yl)amino)-5,6,7,8-tetrahydronaphthalene-2-carbonitrile] | < 100 | < 100 |  |
| N#Cc1ccc2c(c1)CCC[C@@H]2Nc1ccc2[nH]nc(-c3cccc(C(F)F)c3)c2c1 (single isomer, unassigned) [Example 68, 5-((3-(3-(Difluoromethyl)phenyl)-1H-indazol-5-yl)amino)-5,6,7,8-tetrahydronaphthalene-2-carbonitrile] | < 100 | < 100 |  |
| CONC(=O)c1cccc(-c2n[nH]c3ccc(N[C@H]4CCCc5cc(C#N)ccc54)cc23)c1 (single isomer, unassigned) [Example 69, 3-(5-((6-Cyano-1,2,3,4-tetrahydronaphthalen-1-yl)amino)-1H-indazol-3-yl)-N-methoxybenzamide] | < 100 | < 100 |  |
| N#Cc1ccc2c(c1)CCC[C@@H]2Nc1ccc2[nH]nc(-c3ccc([N+](=O)[O-])cc3)c2c1 (single isomer, unassigned) [Example 70, 5-((3-(4-Nitrophenyl)-1H-indazol-5-yl)amino)-5,6,7,8-tetrahydronaphthalene-2-carbonitrile] | 100 to 1000 | < 100 |  |
| COc1ccc(-c2n[nH]c3ccc(N[C@H]4CCCc5cc(C#N)ccc54)cc23)cc1OC (single isomer, unassigned) [Example 71, 5-((3-(3,4-Dimethoxyphenyl)-1H-indazol-5-yl)amino)-5,6,7,8-tetrahydronaphthalene-2-carbonitrile] | < 100 | < 100 |  |
| N#Cc1ccc2c(c1)CCC[C@@H]2Nc1ccc2[nH]nc(-c3ccc(N4CCOCC4)cc3)c2c1 (single isomer, unassigned) [Example 72, 5-((3-(4-Morpholinophenyl)-1H-indazol-5-yl)amino)-5,6,7,8-tetrahydronaphthalene-2-carbonitrile] | < 100 | < 100 |  |
| COc1ccc(-c2n[nH]c3ccc(N[C@H]4CCCc5cc(C#N)ccc54)cc23)cc1C (single isomer, unassigned) [Example 73, 5-((3-(4-Methoxy-3-methylphenyl)-1H-indazol-5-yl)amino)-5,6,7,8-tetrahydronaphthalene-2-carbonitrile] | 100 to 1000 | < 100 |  |
| CS(=O)(=O)c1ccc(-c2n[nH]c3ccc(N[C@H]4CCCc5cc(C#N)ccc54)cc23)cc1 (single isomer, unassigned) [Example 74, 5-((3-(4-(Methylsulfonyl)phenyl)-1H-indazol-5-yl)amino)-5,6,7,8-tetrahydronaphthalene-2-carbonitrile] | < 100 | < 100 |  |
| C/C=C/c1n[nH]c2ccc(N[C@H]3CCCc4cc(C#N)ccc43)cc12 (single isomer, unassigned) [Example 75, (E)-5-((3-(Prop-1-en-1-yl)-1H-indazol-5-yl)amino)-5,6,7,8-tetrahydronaphthalene-2-carbonitrile] | 100 to 1000 | < 100 |  |
| N#Cc1ccc2c(c1)CCC[C@@H]2Nc1ccc2[nH]nc(-c3cncc(C4CC4)c3)c2c1 (single isomer, unassigned) [Example 76, 5-((3-(5-Cyclopropylpyridin-3-yl)-1H-indazol-5-yl)amino)-5,6,7,8-tetrahydronaphthalene-2-carbonitrile] | < 100 | < 100 |  |
| N#Cc1ccc2c(c1)CCC[C@@H]2Nc1ccc2[nH]nc(-c3ccc4c(c3)OCO4)c2c1 (single isomer, unassigned) [Example 77, 5-((3-(Benzo[d][1,3]dioxol-5-yl)-1H-indazol-5-yl)amino)-5,6,7,8-tetrahydronaphthalene-2-carbonitrile] | < 100 | < 100 |  |
| N#Cc1ccc2c(c1)CCC[C@@H]2Nc1ccc2[nH]nc(-c3ccc4[nH]ccc4c3)c2c1 (single isomer, unassigned) [Example 78, 5-((3-(1H-Indol-5-yl)-1H-indazol-5-yl)amino)-5,6,7,8-tetrahydronaphthalene-2-carbonitrile] | 100 to 1000 | < 100 |  |
| N#Cc1ccc2c(c1)CCC[C@@H]2Nc1ccc2[nH]nc(-c3ccc[nH]3)c2c1 (single isomer, unassigned) [Example 79, 5-((3-(1H-Pyrrol-2-yl)-1H-indazol-5-yl)amino)-5,6,7,8-tetrahydronaphthalene-2-carbonitrile] | 100 to 1000 | < 100 |  |
| CC(C)(C)OC(=O)n1cccc1-c1n[nH]c2ccc(N[C@H]3CCCc4cc(C#N)ccc43)cc12 (single isomer, unassigned) [Example 80, tert-Butyl 2-(5-((6-cyano-1,2,3,4-tetrahydronaphthalen-1-yl)amino)-1H-indazol-3-yl)-1H-pyrrole-1-carboxylate] |  | 100 to 1000 | > 10000 |
| N#Cc1ccc2c(c1)CCC[C@@H]2Nc1ccc2[nH]nc(-c3ccc(C(=O)N4CCOCC4)cc3)c2c1 (single isomer, unassigned) [Example 81, 5-((3-(4-(Morpholine-4-carbonyl)phenyl)-1H-indazol-5-yl)amino)-5,6,7,8-tetrahydronaphthalene-2-carbonitrile] | < 100 | < 100 |  |
| N#Cc1ccc2c(c1)CCC[C@@H]2Nc1ccc2[nH]nc(-c3ccc4c(c3)NC(=O)C4)c2c1 (single isomer, unassigned) [Example 82, 5-((3-(2-Oxoindolin-6-yl)-1H-indazol-5-yl)amino)-5,6,7,8-tetrahydronaphthalene-2-carbonitrile] | < 100 | < 100 |  |
| Cn1cc2cc(-c3n[nH]c4ccc(N[C@H]5CCCc6cc(C#N)ccc65)cc34)ccc2n1 (single isomer, unassigned) [Example 83, 5-((2′-Methyl-1H,2′H-[3,5′-biindazol]-5-yl)amino)-5,6,7,8-tetrahydronaphthalene-2-carbonitrile] | < 100 | < 100 |  |
| N#Cc1ccc2c(c1)CCC[C@@H]2Nc1ccc2[nH]nc(-c3ccc4c(c3)OCCO4)c2c1 (single isomer, unassigned) [Example 84, 5-((3-(2,3-Dihydrobenzo[b][1,4]dioxin-6-yl)-1H-indazol-5-yl)amino)-5,6,7,8-tetrahydronaphthalene-2-carbonitrile] | 100 to 1000 | < 100 |  |
| CC(=O)Nc1cccc(-c2n[nH]c3ccc(N[C@H]4CCCc5cc(C#N)ccc54)cc23)c1 (single isomer, unassigned) [Example 85, N-(3-(5-((6-Cyano-1,2,3,4-tetrahydronaphthalen-1-yl)amino)-1H-indazol-3-yl)phenyl)acetamide] | < 100 | < 100 |  |
| CN(C)C(=O)c1cccc(-c2n[nH]c3ccc(N[C@H]4CCCc5cc(C#N)ccc54)cc23)c1 (single isomer, unassigned) [Example 86, 3-(5-((6-Cyano-1,2,3,4-tetrahydronaphthalen-1-yl)amino)-1H-indazol-3-yl)-N,N-dimethylbenzamide] | < 100 | < 100 |  |
| N#Cc1ccc2c(c1)CCC[C@@H]2Nc1ccc2[nH]nc(C3=CCC4(CC3)OCCO4)c2c1 (single isomer, unassigned) [Example 87, 5-((3-(1,4-Dioxaspiro[4.5]dec-7-en-8-yl)-1H-indazol-5-yl)amino)-5,6,7,8-tetrahydronaphthalene-2-carbonitrile] | 1000 to 10000 | 100 to 1000 |  |
| N#Cc1ccc2c(c1)CCC[C@@H]2Nc1ccc2[nH]nc(C3=CCOCC3)c2c1 (single isomer, unassigned) [Example 88, 5-((3-(3,6-Dihydro-2H-pyran-4-yl)-1H-indazol-5-yl)amino)-5,6,7,8-tetrahydronaphthalene-2-carbonitrile] | 100 to 1000 | < 100 |  |
| N#Cc1cccc(-c2n[nH]c3ccc(N[C@H]4CCCc5cc(C#N)ccc54)cc23)c1 (single isomer, unassigned) [Example 89, 5-((3-(3-Cyanophenyl)-1H-indazol-5-yl)amino)-5,6,7,8-tetrahydronaphthalene-2-carbonitrile] | < 100 | < 100 |  |
| N#Cc1ccc2c(c1)CCC[C@@H]2Nc1ccc2[nH]nc(-c3ccc(C#N)nc3)c2c1 (single isomer, unassigned) [Example 91, 5-(5-((6-Cyano-1,2,3,4-tetrahydronaphthalen-1-yl)amino)-1H-indazol-3-yl)picolinonitrile] | 100 to 1000 | < 100 |  |
| COc1ccc(-c2n[nH]c3ccc(N[C@H]4CCCc5cc(C#N)ccc54)cc23)cc1 (single isomer, unassigned) [Example 92, 5-((3-(4-Methoxyphenyl)-1H-indazol-5-yl)amino)-5,6,7,8-tetrahydronaphthalene-2-carbonitrile] | 100 to 1000 | < 100 |  |
| N#Cc1ccc2c(c1)CCC[C@@H]2Nc1ccc2[nH]nc(/C=C/c3ccccc3)c2c1 (single isomer, unassigned) [Example 93, (E)-5-((3-Styryl-1H-indazol-5-yl)amino)-5,6,7,8-tetrahydronaphthalene-2-carbonitrile] | < 100 | < 100 |  |
| CN1CC=C(c2n[nH]c3ccc(N[C@H]4CCCc5cc(C#N)ccc54)cc23)CC1 (single isomer, unassigned) [Example 94, 5-((3-(1-Methyl-1,2,3,6-tetrahydropyridin-4-yl)-1H-indazol-5-yl)amino)-5,6,7,8-tetrahydronaphthalene-2-carbonitrile] |  | 1000 to 10000 | > 10000 |
